Data reported in the METLIN SMRT retention time set (Domingo-Almenara et al. 2019).

Experiment: gradient 5% acetonitrile 3 min, to 50% in 2 min, to 85% in 15 min, held 3 min, 100 µL/min
Details: column: Zorbax Extend-C18 2.1 x 50 mm; eluents: water / acetonitrile, 0.1% formic acid
In short: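 Mixtures of ~100 pure standards were chromatographed on a Zorbax Extend-C18 column (2.1 × 50 mm, 1.8 μm) at 100 μL/min using water and acetonitrile, each with 0.1% formic acid. Detection used a quadrupole time-of-flight mass spectrometer in positive and negative ionization mode, and data collection spanned 3 months. Retention time was obtained from adduct peaks picked computationally and each checked manually.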

SMILES | RP-LC retention time [s]
CSc1cccc(NC(=O)C2CCN(C(=O)c3ncn4c3COC(c3ccc(F)cc3)C4)CC2)c1 (configuration not stated) | 849
CCSc1nc2ccc(NS(=O)(=O)c3ccc(C)cc3C)cc2s1 | 1110
COc1ccc(S(=O)(=O)Nc2ccc(-c3cn4ccc(C)nc4n3)cc2)c(C)c1C | 715
CCCOc1ccc(CNC(=O)c2nc3cccnc3n(CC)c2=O)cc1 | 918
CC1(C)CC(=O)c2cn(-c3ccccc3)c(=O)c(C(=O)N3CCC(N4CCCCC4)CC3)c2C1 | 622
CCOCCCNC(=O)CCc1nnc2c3cc(-c4ccc(C)c(C)c4)nn3ccn12 | 753
COc1ccc(C2CC(=O)Nc3c(C(=O)O)cn(-c4cccc(F)c4)c32)cc1OC (configuration not stated) | 728
CCOc1ccccc1N1CCN(Cc2nc(-c3ccc(N4CCCC4)nc3)no2)CC1 | 651
COC1CCC12CCN(C(=O)c1ocnc1C)CC2 (configuration not stated) | 692
Cc1cc(OCC(=O)Nc2ccc(C)c(C)c2)nc(N2CCN(c3ccccc3)CC2)n1 | 911
O=C(NCc1ccccc1C(F)(F)F)C1CCCN(c2nccnc2Sc2ccccc2)C1 (configuration not stated) | 1110
Cc1ccc(S(=O)(=O)N2CC=C(c3cn(C)c4ncccc34)CC2)cc1C | 1080
NS(=O)(=O)c1ccc(CCNC(=O)c2csc(-c3cnccn3)n2)cc1 | 622
O=C(Nc1c2c(nn1-c1cccc(Cl)c1)CSC2)C(=O)N1CCCC1 | 914
C=CCN(Cc1nc(-c2ccc(C)cc2)no1)C(=O)Nc1ccccc1C | 650
Cn1c(CNC(=O)C2CCC2)nc2c1CN(S(=O)(=O)c1cccs1)CC2 | 617
COc1ccc(C(=O)N2CCN(c3nc(CN4CCOCC4)cs3)CC2)cn1 | 580
CC(C)c1nccn1C1CN(C(=O)C2CCCCC2)C1 | 594
COc1ccc(N2C=C(C#N)S(=O)(=O)c3ccc(C)cc32)c(OC)c1 | 930
CCCCc1nn2c(=O)cc(CN3CCN(c4ncccn4)CC3)nc2s1 | 604
COc1ccc(Cl)cc1NC(=O)c1cc(C(C)C)n2nccc2n1 | 1310
CC(C)Cc1nc(C2CN(C(=O)CC3CCCC3)CC23CCCC3)no1 (configuration not stated) | 1210
O=C(Cn1c(=O)c2cccn2c2ccccc21)NCCCN1CCCC1 | 593

SMILES | RP-LC retention time [s]
Cc1cccc(S(=O)(=O)N2CCC(C)(C(=O)NCc3ccccc3)CC2)c1 | 935
Cc1ccc(O)c(NC(=O)c2nc3nc(C)cc(C(F)F)n3n2)c1 | 762
CCCCNC(=O)C1CCC(=O)N(c2ccc(OC)cc2)C1c1ccc(F)cc1 (configuration not stated) | 757
COc1ccc(-c2nnc(N3CCC(C(=O)Nc4ccc(OC)cc4OC)CC3)o2)cc1 | 837
Cn1cnc(S(=O)(=O)N2CCC(C(=O)Nc3ccc(F)c(Cl)c3)CC2)c1 | 762
CC(C)NC(=O)c1nn(-c2ccccc2F)nc1CO | 768
CSc1nc2ccc3nc(NC(=O)c4c(F)cccc4F)sc3c2s1 | 990
CCc1nc2ncc(-c3ccnc(N4CCN(C)CC4)n3)c(C)n2n1 | 562
Cc1cc(-c2ccc(S(=O)(=O)N3CCC(C(=O)NCC4CCCCC4)CC3)o2)n[nH]1 | 840
Cc1noc(-c2ccc(=O)n(Cc3nc(-c4ccccc4)oc3C)c2)n1 | 804
COc1cc(OC)c(NC(=O)N2CCC3(C2)c2nc[nH]c2CCN3C)cc1Cl (configuration not stated) | 569
Cc1ccc(-n2nc3c(=O)n(CCCC(=O)NCc4ccc(C)o4)nc(C)c3c2C)cc1 | 817
CCC(C)Nc1nc(N(C)C)nc(-n2cnc(SC)n2)n1 (configuration not stated) | 942
CCN1C(=O)COc2ccc(-c3nc(NC(=O)c4ccc(Cl)cc4)sc3C)cc21 | 1130
COc1ccc(C(=O)N2CCCC2c2nc(-c3ccc(OC)c(OC)c3)no2)cc1 (configuration not stated) | 848
O/N=C(/c1ccccc1)c1ccc2c3c(cccc13)CC2 | 1140
O=C(O)c1cc(-c2cccc3ccccc23)nc2ccc(Br)cc12 | 1090
O=C(NC1CCCCC1)C1CCN(C(=O)c2cc(-c3ccncc3)n[nH]2)CC1 | 590
O=C(Cc1csc(-c2ccccc2)n1)NCc1nc2ccccc2[nH]1 | 647
COc1cc(NC(=O)N2CCC(C)(C(=O)NCc3ccc(F)cc3)CC2)cc(OC)c1OC | 737
CCOC(=O)C1CCCN(C(=O)c2ccc(SCCN3CCOCC3)nc2)C1 (configuration not stated) | 616
COCCNC(=O)CSc1nccc2c1ccn2Cc1ccccc1 | 666
COc1ccc2c(c1)CC(C(=O)NCCCN1CCN(C3CCCCC3)CC1)CO2 (configuration not stated) | 576

SMILES | RP-LC retention time [s]
CCn1cnc(S(=O)(=O)N2CCC(C(=O)Nc3cccc(Cl)c3)CC2)c1 | 695
CC1=C(C(=O)NCCN2CCOCC2)C2(CCN(Cc3ccccc3)CC2)OC1=O | 634
O=C(NCc1ccccc1)C1CCc2nc(N3CCCCC3)ncc2C1 (configuration not stated) | 720
CCc1nc(-c2csc(S(=O)(=O)N3CCCC(C(=O)NC4CCCCCC4)C3)c2)no1 (configuration not stated) | 1060
CO[C@H]1C(=O)N(C(C)C)[C@H]1C1CCN(C(=O)CCn2cc(C)cn2)CC1 | 654
CCCN1C(=O)Cc2ccccc2C1C(=O)NCCOC (configuration not stated) | 641
COc1ccc(OCc2noc(CNC(=O)c3cc(C)oc3C)n2)cc1 | 817
CCN1C(=O)c2cc(S(=O)(=O)Nc3ccc(Cl)cc3)ccc2Oc2cccnc21 | 1050
COc1ccc(S(=O)(=O)NCCc2cn(C)c3ncccc23)cc1Cl | 760
Cc1ccc(-c2cnn(CC(=O)Nc3ccc(Br)cc3)c(=O)n2)cc1 | 907
COc1cc(CNC(=O)C2CCCN(c3nccnc3Sc3ccccc3)C2)cc(OC)c1 (configuration not stated) | 986
CCCc1nc(-c2c(C)cc(C)nc2NC(=O)c2ccc(C)cc2)no1 | 893
Cc1nn(-c2ccccc2)c(C)c1CCc1nnc2sc(-c3ccc(N(C)C)cc3)nn12 | 1020
CCCCN1C(=O)C(C)(C(=O)NCc2ccccc2)Oc2cccnc21 (configuration not stated) | 972
O=C(Nc1ccc(Cl)cc1)c1cc2c(cc1O)[nH]c1ccccc12 | 1210
CCc1ccccc1Nc1c(-c2nc(C)no2)cnc2nc(C)ccc12 | 826
COc1ccc(NC(=O)C2(C)Oc3cccnc3N(C(C)C)C2=O)c(OC)c1 (configuration not stated) | 1010
Cc1ccc(-c2noc(C3CC(=O)N(c4ccc(Cl)cc4)C3)n2)cc1 (configuration not stated) | 1060
Cc1ccc(-c2cn3c(CC(=O)N4CCc5ccccc5C4)csc3n2)cc1C | 879
CCOc1ccc(-c2noc(N3CCC(C(=O)Nc4cc(Cl)ccc4OC)CC3)n2)cc1OC | 1090
COc1cccc(CNC(=O)Cn2cccc2-c2nnc(-c3ccccc3)o2)c1 | 895
